Measurements: patent US12629406B2, “Alterations in endothelin receptors following hemorrhage and resuscitation by centhaquin” (MIDWESTERN UNIVERSITY, priority 2018, dated 2026)
Where “and” joins values, the source holds several entries; their conditions need not be identical. Equal values may be shown once.

Experiment: Rat hemorrhagic shock, hypertonic saline resuscitation: hematocrit, arterial blood gases, lactate, base deficit
Assay type: in vivo
Protocol: Animals. Male Sprague-Dawley rats (340 to 380 g) (Envigo, Indianapolis, IN) were housed for at least 4 days in a room with controlled temperature (23±1° C.), humidity (50±10%) and light (6:00 A.M. to 6:00 P.M.) before being used. Food and water were made available continuously. Animal care and use for experimental procedures were approved by the Institutional Animal Care and Use Committee of the Midwestern University. All anesthetic and surgical procedures were in compliance with the guidelines established by the Animal Care Committee.
Determination of arterial blood gases and base deficit. Baseline arterial blood pH, Po2, Pco2, Na^+, K^+ and lactate were monitored prior to induction of shock, 30 minutes after induction of shock, and 30 and 60 minutes following vehicle or centhaquin resuscitation. Blood samples (0.15 ml) were drawn from the arterial cannula using blood gas sampling syringes (Innovative Medical Technologies, Inc. Leawood, K S) and analyzed using a pHOx Ultra analyzer (Nova Biomedical Corporation, Waltham, MA). The base deficit was calculated using the formula (Davis et al. 1998; Paladino et al. 2008): SBD=0.9287×[HCO3^−−24.4+14.83×(pH-7.4)]
Induction of Hemorrhagic Shock. Hemorrhage was induced by withdrawing blood from the femoral artery at a rate of approximately 0.5 to 1 mL/min until a MAP of 35 mmHg was reached. This MAP was maintained for 30 min by further withdrawal of blood, if necessary. The hemorrhagic shock model used in the present study is a well-established rodent model of manageable pressure hemorrhage (Buehler et al. 2000; Gulati et al. 1997a; Gulati and Sen 1998). The volume of blood loss was about approximately 8.0 ml in each rat and was similar in various groups, amounting to approximately 40% of the total blood. Measured hematocrit levels were similar in various groups. The duration of blood withdrawal was approximately 15 minutes.
Experimental design. To determine the resuscitative effect of centhaquin on cardiovascular system and plasma cytokines in hemorrhagic shock, rats were randomly divided into five groups, Group 1: Sham control (Non-hemorrhaged) (n=5), Group 2: Hemorrhage with no resuscitation (n=5); Group 3: Hemorrhage followed by resuscitation with 3% hypertonic saline (vehicle) (n=5); Group 4: Hemorrhage followed by resuscitation with vehicle plus centhaquin (0.017 mg/kg) (n=5); and Group 5: Hemorrhage followed by resuscitation with vehicle plus centhaquin (0.05 mg/kg) (n=5). Resuscitation was started 30 min after induction of hemorrhagic shock as an intravenous infusion (1 mL/min) through femoral vein using an infusion pump (Harvard Apparatus Infusion/Withdrawal Pump, Millis, MA). The blood samples, for biochemical estimations, were collected at 30 minutes of resuscitation and cardiovascular parameters were monitored till 60 minutes after which the animal was sacrificed. The volume of resuscitative solution was kept equal to the volume of blood loss.

[1] = 60 min after resuscitation, centhaquin 0.017 mg/kg in 3% saline
[2] = 60 min after resuscitation, centhaquin 0.05 mg/kg in 3% saline
[3] = Baseline, before hemorrhage, centhaquin 0.017 mg/kg group
[4] = Baseline, before hemorrhage, centhaquin 0.05 mg/kg group
[5] = H. Shock, before resuscitation, centhaquin 0.017 mg/kg group
[6] = H. Shock, before resuscitation, centhaquin 0.05 mg/kg group
[7] = centhaquin 0.017 and 0.05 mg/kg

Cc1cccc(N2CCN(CCc3ccc4ccccc4n3)CC2)c1 [centhaquin, 2-[2-(4-(3-methyphenyl)-1-piperazinyl)]ethyl-quinoline]
Base-deficit [1]: −12.0±0.2 mEq/L and −12.0 ± 0.2^#Δ mEq/L | Hematocrit [1]: 21.5 ± 1.8% | Lactate [1]: 1.9 ± 0.1^#Δ mmol/L | PCO2 [1]: 26.0 ± 1.6 mmHg | arterial blood pH [1]: 7.24 ± 0.02^Δ | pO2 [1]: 131.3 ± 5.4 mmHg | Base-deficit [2]: −11.6±0.5 mEq/L and −11.6 ± 0.5^#Δ mEq/L | Hematocrit [2]: 21.3 ± 1.3% | Lactate [2]: 1.7 ± 0.2^#Δ mmol/L | PCO2 [2]: 27.3 ± 1.9 mmHg | arterial blood pH [2]: 7.28 ± 0.01^Δ | pO2 [2]: 121.3 ± 4.6 mmHg | Base-deficit [3]: −2.9 ± 0.3 mEq/L | Hematocrit [3]: 36.8 ± 1.3% | Lactate [3]: 1.5 ± 0.2 mmol/L | PCO2 [3]: 33.8 ± 1.2 mmHg | arterial blood pH [3]: 7.38 ± 0.01 | pO2 [3]: 125.5 ± 1.9 mmHg | Base-deficit [4]: −2.8 ± 0.3 mEq/L | Hematocrit [4]: 39.3 ± 1.6% | Lactate [4]: 1.8 ± 0.1 mmol/L | PCO2 [4]: 34.5 ± 2.1 mmHg | arterial blood pH [4]: 7.38 ± 0.01 | pO2 [4]: 120.2 ± 1.2 mmHg | Base-deficit [5]: −15.3 ± 0.4 mEq/L | Hematocrit [5]: 24.8 ± 1.5 % | Lactate [5]: 7.6 ± 0.3 mmol/L | PCO2 [5]: 15.9 ± 0.9 mmHg | arterial blood pH [5]: 7.23 ± 0.02 | pO2 [5]: 145.6 ± 1.9 mmHg | Base-deficit [6]: −15.4 ± 0.9 mEq/L | Hematocrit [6]: 22.2 ± 0.7 % | Lactate [6]: 7.4 ± 0.4 mmol/L | PCO2 [6]: 16.3 ± 1.5 mmHg | arterial blood pH [6]: 7.25 ± 0.03 | pO2 [6]: 142.8 ± 1.8 mmHg | change in hematocrit after treatment [7]: no change | effect on blood pH of hemorrhaged rats [7]: significantly prevented the reduction of pH | blood lactate levels compared to the hypertonic saline group (centhaquin 0.017 and 0.05 mg/kg, p<0.001): significant decrease | effect on hemorrhage-induced decrease in pCO2 and increase in pO2 (resuscitation with centhaquin): not affected
